Reference: PMC8230625 (International Journal of Molecular Sciences, 2021)
Where “and” joins values, the source holds several entries; their conditions need not be identical. Equal values may be shown once. Read-outs that look alike come from different tables or passages of the source.

How the values were obtained:
[1] = target: T1, hERα (Saccharomyces cerevisiae BLYES strain) (Homo sapiens, UniProt P03372); assay: cell-based; assay type: cell-based; conditions: for CI Value (combination index) / Combined Estrogenic Effect / Combined Estrogenic Effect (grade symbol): + 6.28 × 10^−2 µM ZEN; for Combined estrogenic effect in Figure 5B: + 62.8 ×10^-3 μM ZEN; for Effect of subtoxic (non-estrogenic) concentration of the compound on the estrogenic effect of ZEN: co-treatment with ZEN (approx. 20% estrogenicity), α-ZEL 1.56 × 10^−3 µM, ZAN 6.24 × 10^−3 µM, AOH up to 48.4 µM, Figure 5A; for Concentration at (and above) which statistically significant (p < 0.01) estrogenic effect was observed: single compound
T1 construct: expressed in transfected cells; host or cells: Saccharomyces cerevisiae BLYES strain (hERα gene integrated in the chromosome)
T1 sequence (P03372 whole entry): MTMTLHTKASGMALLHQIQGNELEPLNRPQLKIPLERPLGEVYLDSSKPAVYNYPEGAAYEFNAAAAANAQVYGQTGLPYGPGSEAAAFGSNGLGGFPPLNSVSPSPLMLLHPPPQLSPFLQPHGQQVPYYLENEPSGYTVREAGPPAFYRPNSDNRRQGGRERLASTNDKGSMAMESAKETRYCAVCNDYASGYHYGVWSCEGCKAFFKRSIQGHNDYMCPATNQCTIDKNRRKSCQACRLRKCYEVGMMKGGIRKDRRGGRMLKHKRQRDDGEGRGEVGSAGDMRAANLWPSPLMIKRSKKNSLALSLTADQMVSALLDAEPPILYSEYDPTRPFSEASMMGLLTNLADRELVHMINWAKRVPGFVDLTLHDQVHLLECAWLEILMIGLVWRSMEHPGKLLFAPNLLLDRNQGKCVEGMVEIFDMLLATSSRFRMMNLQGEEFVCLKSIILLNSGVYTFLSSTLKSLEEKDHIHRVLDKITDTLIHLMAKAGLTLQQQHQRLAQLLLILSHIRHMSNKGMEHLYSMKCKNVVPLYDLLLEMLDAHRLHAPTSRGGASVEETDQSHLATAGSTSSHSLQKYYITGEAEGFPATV
Text: The Saccharomyces cerevisiae BLYES strain was applied to examine the estrogenic activity of the compounds tested. This bioluminescent yeast bioreporter harbors the hERα gene on its chromosome, and it has two plasmids with genes responsible for bioluminescence. The pUTK404 plasmid contains luxC, -D, and -E genes from Photorhabdus luminescens and flavin oxidoreductase gene (frp) from Vibrio harveyi. The pUTK407 plasmid contains tandem estrogen responsive elements (EREs) that initiate the transcription of luxA and luxB genes after binding the dimer formed by estrogen receptor—ligand complexes.
S. cerevisiae BLYES strain was grown in 30 mL of yeast growth medium (YMM leu-, ura-) for 18–20 h at 30 °C.
Stock solutions of the compounds tested were prepared in methanol and stored at −20 °C. Estrogen assays were carried out on 96-well (PS, F-bottom) microplates (Greiner Bio-One Hungary Ltd., Mosonmagyaróvár, Hungary). In single compound tests, stock solutions of the compounds were serially diluted with methanol; whereas, in co-exposure experiments, a 20-µL mixture of the solutions was placed into the wells of the microplates. After the evaporation of methanol, yeast culture (200 µL; OD600 of 1.000 ± 0.050) were pipetted into each well. E2 was applied as a positive control, while wells containing only yeast cells and yeast cells with methanol served as negative and solvent controls, respectively. Bioluminescence (cps, counts per second) was measured after 5-h incubation (30 °C) with a VictorX Multilabel Plate Reader (Perkin Elmer Inc., Waltham, MA, USA).
(§1) Combined effects were evaluated based on combination indices (CI) determined using the CompuSyn software (ComboSyn Inc., Paramus, NJ, USA) by the median-effect equation of the mass-action law:(1) logfa/fu=m×log(D)−m×log(Dm), where fa and fu are the affected and unaffected fractions of the system, respectively; D represents the dose, Dm denotes the dose necessary for the production of median effect, while m is the sigmoidicity coefficient (m > 1 sigmoidal, m = 1 hyperbolic, m < 1 flat sigmoidal).
(§2) The combined effects of mycotoxins were determined by the CI values calculated based on the following equation [68]:(2) CI=(D)1/(Dx)1+(D)2/(Dx)2, where (Dx)1 and (Dx)2 are the individual doses necessary for the production of x% effect, while (D)1 and (D)2 are the doses of the two compounds that combined evoke the same effect as (Dx)1 alone or (Dx)2 alone, i.e., the targeted x% effect.
Zero percent was defined in each measurement as the mean of the methanol control values, and 100% was defined as the mean of all plateau values of single compounds’ concentration—response curves.

in vitro = conditions: human
Method: (§3) The HeLa cervical cancer adherent cell line (ATCC: CCL-2) was applied for the evaluation of individual and combined effects of mycotoxins on cell viability. The cells were cultured in DMEM (high glucose, 4500 mg/L) with 10% FBS, penicillin (100 U/mL), and streptomycin (100 μg/mL) in sterile plastic cell culture flasks (75 cm^2; 5% CO2, 37 °C). The cells were trypsinized and plated onto 96-well sterile plastic plates. Stock solutions (each 5000 μM) of ZEN, ZELs, ZAN, and ZALs used in cell experiments were prepared in 96 v/v% ethanol (spectroscopic grade; VWR, Debrecen, Hungary). Stock solutions of AOH (5000 μM or 40 mM) were prepared in spectroscopic grade dimethyl sulfoxide (DMSO; Fluka, Morris Plains, NJ, USA). Mycotoxin stock solutions were stored at −20 °C.
(§4) HeLa cells were treated with ZEN, α/β-ZEL, ZAN, α/β-ZAL, and AOH (0–250 μM) for 24 h. […] The cell viability was evaluated based on the ATP levels/well employing a previously described method without modifications.
as §1, §2

HeLa cells = assay: in vitro; conditions: for Concentration at (and above) which statistically significant (p < 0.01) decrease in cell viability was noticed: 24 h incubation, single compound; for IC50: Homo sapiens, read-out: Dm (IC50), viability of HeLa cells (ATP/well); for Effect of the non-toxic (subtoxic) concentration of the compound on ATP levels of ZEN-exposed cells: co-exposure with toxic concentration of ZEN (20 μM), compared to ZEN-exposed cells, Figure 3A
Method: as §3, §4, §1, §2

[2] = BLYES, higher concentration (µM): α-ZEL 1.25 × 10^−2, β-ZEL 2.43, ZAN 4.99 × 10^−2, α-ZAL 2.48 × 10^−2, β-ZAL 2.48 × 10^−1, GEN 1.48
[3] = BLYES, higher estrogenic concentration of the compound (as E22)
[4] = BLYES, lower concentration (µM): α-ZEL 6.24 × 10^−3, β-ZEL 1.22, ZAN 2.50 × 10^−2, α-ZAL 1.24 × 10^−2, β-ZAL 1.24 × 10^−1, GEN 7.4 × 10^−1
[5] = BLYES, lower estrogenic concentration of the compound (as E21)
[6] = BLYES, higher estrogenic concentration of the compound (as E20)
[7] = BLYES, lower estrogenic concentration of the compound (as E19)
[8] = HeLa, 24 h, 10 µM (lower toxic concentration) of the compound + 20 µM ZEN
[9] = HeLa, 24 h, 10 µM of the compound + 20 µM ZEN
[10] = HeLa, 24 h, 10 µM of the compound + 20 µM ZEN, CompuSyn
[11] = HeLa, 24 h, 30 µM (higher toxic concentration) of the compound + 20 µM ZEN
[12] = HeLa, 24 h, 30 µM of the compound + 20 µM ZEN
[13] = HeLa, 24 h, 30 µM of the compound + 20 µM ZEN, CompuSyn

SMILES	EC50 [1]	CI Value (combination index) [1, 2]	Combined Estrogenic Effect [1, 3]	Combined Estrogenic Effect (grade symbol) [1, 3]	CI Value (combination index) [1, 4]	Combined Estrogenic Effect [1, 5]	Combined Estrogenic Effect (grade symbol) [1, 5]	Combined estrogenic effect in Figure 5B [1, 6]	Combined estrogenic effect in Figure 5B [1, 7]	Concentration at (and above) which statistically significant (p < 0.01) estrogenic effect was observed ([1]; BLYES)	cytotoxicity at 10 µM (in vitro)	cytotoxicity at 30 µM (in vitro)	Combined cytotoxic effect in Figure 3B (HeLa cells; [8])	Combined Cytotoxic Effect (HeLa cells; [9])	Combined Cytotoxic Effect (grade symbol) (HeLa cells; [9])	Combined cytotoxic effect in Figure 3B (HeLa cells; [11])	Combined Cytotoxic Effect (HeLa cells; [12])	Combined Cytotoxic Effect (grade symbol) (HeLa cells; [12])	Concentration at (and above) which statistically significant (p < 0.01) decrease in cell viability was noticed (HeLa cells; HeLa)	IC50 (HeLa cells; HeLa, 24 h)	also measured
C[C@H]1CCCC(=O)CCCCCc2cc(O)cc(O)c2C(=O)O1 [ZAN, zearalanone]	0.048 µM	0.62	Synergism (CI < 0.8: synergism)	+ (0.60 < CI < 0.80: +)	0.58	Synergism (CI < 0.8: synergism)	++ (CI < 0.60: ++)	synergism	synergism	0.012 µM	13.2%	34.8%	Syn and synergism	Synergism (CI < 0.8: synergism)	++ (CI < 0.60: ++)	Syn and synergism	Synergism (CI < 0.8: synergism)	+ (0.60 < CI < 0.80: +)	10 µM	61.5 µM	Effect of subtoxic (non-estrogenic) concentration of the compound on the estrogenic effect of ZEN ([1]; BLYES): statistically significant (p < 0.05) increases; CI Value (combination index) (HeLa cells; [10]): 0.55; CI Value (combination index) (HeLa cells; [13]): 0.77
C[C@H]1CCCC(=O)CCC/C=C/c2cc(O)cc(O)c2C(=O)O1 [ZEN, zearalenone]	0.46 µM									0.031 µM									10 µM	56.4 µM	Estrogenic effect (% increase), individual effect ([1]; BLYES, ZEN alone at 62.8 ×10^-3 μM (6.3 × 10^−2 µM)): approximately 20%; cytotoxicity at 24 h, 20 µM (in vitro; Decrease in cellular ATP levels (% of control), individual effect, HeLa, 24 h, single compound at 20 μM): 30.1%; cytotoxicity (HeLa cells; read-out: Decrease in cellular ATP levels (% of control), individual effect, HeLa, 24 h, single compound at 20 μM, 20 µM): ~30%
C[C@H]1CCC[C@H](O)CCCCCc2cc(O)cc(O)c2C(=O)O1 [α-ZAL, α-zearalanol]	0.019 µM	1.16	Additive effect (0.8 < CI < 1.2: additive effect)	± (0.80 < CI < 1.20: ±)	0.97	Additive effect (0.8 < CI < 1.2: additive effect)	± (0.80 < CI < 1.20: ±)	additive combined effects	additive combined effects	0.024 µM	1.9%	19.3%	Syn	Synergism (CI < 0.8: synergism)	++ (CI < 0.60: ++)	Syn	Synergism (CI < 0.8: synergism)	+ (0.60 < CI < 0.80: +)	20 µM	63.8 µM	CI Value (combination index) (HeLa cells): 0.78 and 0.52; Effect of the non-toxic (subtoxic) concentration of the compound on ATP levels of ZEN-exposed cells (HeLa cells; HeLa, 24 h): statistically significant (p < 0.01) decreases in ATP levels
C[C@H]1CCC[C@H](O)CCC/C=C/c2cc(O)cc(O)c2C(=O)O1 [α-ZEL, α-zearalenol]	0.019 µM	0.41	Synergism (CI < 0.8: synergism)	++ (CI < 0.60: ++)	0.37	Synergism (CI < 0.8: synergism)	++ (CI < 0.60: ++)	synergism	synergism		5.5%	38.4%	Syn	Synergism (CI < 0.8: synergism)	++ (CI < 0.60: ++)	Add	Additive effect (0.8 < CI < 1.2: additive effect)	± (0.80 < CI < 1.20: ±)	20 µM	44.6 µM	Effect of subtoxic (non-estrogenic) concentration of the compound on the estrogenic effect of ZEN ([1]; BLYES): statistically significant (p < 0.05) increases; CI Value (combination index) (HeLa cells; [10]): 0.57; CI Value (combination index) (HeLa cells; [13]): 0.81
C[C@H]1CCC[C@@H](O)CCCCCc2cc(O)cc(O)c2C(=O)O1 [β-ZAL, β-zearalanol]	0.18 µM	1.56	Antagonism (CI > 1.2: antagonism)	-- (CI > 1.40: --)	1.19	Additive effect (0.8 < CI < 1.2: additive effect)	± (0.80 < CI < 1.20: ±)	antagonism	additive effect	0.03 µM	9.6%	28%	Syn	Synergism (CI < 0.8: synergism)	++ (CI < 0.60: ++)	Syn	Synergism (CI < 0.8: synergism)	+ (0.60 < CI < 0.80: +)	10 µM	64.5 µM	CI Value (combination index) (HeLa cells): 0.51 and 0.72; Effect of the non-toxic (subtoxic) concentration of the compound on ATP levels of ZEN-exposed cells (HeLa cells; HeLa, 24 h): statistically significant (p < 0.01) decreases in ATP levels
